Results published in patent US6667311B2, “Nitrogen substituted biaryl purine derivatives as potent antiproliferative agents” (Albany Molecular Research, Inc., priority 2001, dated 2003).

How the values were obtained:
Type in all cases: cell-based, human
MDA-MB-231/ATCC = test: NCI growth inhibition, MDA-MB-231/ATCC; details: MDA-MB-231/ATCC (Breast)
UACC-62 = test: NCI growth inhibition, UACC-62; details: UACC-62 (Melanoma)
M14 = test: NCI growth inhibition, M14; details: M14 (Melanoma)
BT-549 = test: NCI growth inhibition, BT-549; details: BT-549 (Breast)
IGROV1 = test: NCI growth inhibition, IGROV1; details: IGROV1 (Ovarian)
NCI-H322M = test: NCI growth inhibition, NCI-H322M; details: NCI-H322M (Non-Small Cell Lung)
SF-268 = test: NCI growth inhibition, SF-268; details: SF-268 (CNS)
T-47D = test: NCI growth inhibition, T-47D; details: T-47D (Breast)
OVCAR-4 = test: NCI growth inhibition, OVCAR-4; details: OVCAR-4 (Ovarian)
HL-60 (TB) = test: NCI growth inhibition, HL-60 (TB); details: HL-60(TB) (Leukemia)
MCF7 = test: NCI growth inhibition, MCF7; details: MCF7 (Breast)
TK-10 = test: NCI growth inhibition, TK-10; details: TK-10 (Renal)
MALME-3M = test: NCI growth inhibition, MALME-3M; details: MALME-3M (Melanoma)
HCC-2998 = test: NCI growth inhibition, HCC-2998; details: HCC-2998 (Colon)
UO-31 = test: NCI growth inhibition, UO-31; details: UO-31 (Renal)
SNB-75 = test: NCI growth inhibition, SNB-75; details: SNB-75 (CNS)
DU-145 = test: NCI growth inhibition, DU-145; details: DU-145 (Prostate)
U251 = test: NCI growth inhibition, U251; details: U251 (CNS)
CCRF-CEM = test: NCI growth inhibition, CCRF-CEM; details: CCRF-CEM (Leukemia)
K-562 = test: NCI growth inhibition, K-562; details: K-562 (Leukemia)
OVCAR-5 = test: NCI growth inhibition, OVCAR-5; details: OVCAR-5 (Ovarian)
OVCAR-8 = test: NCI growth inhibition, OVCAR-8; details: OVCAR-8 (Ovarian)
UACC-257 = test: NCI growth inhibition, UACC-257; details: UACC-257 (Melanoma)
RXF 393 = test: NCI growth inhibition, RXF 393; details: RXF 393 (Renal)
KM12 = test: NCI growth inhibition, KM12; details: KM12 (Colon)
SF-539 = test: NCI growth inhibition, SF-539; details: SF-539 (CNS)
SR = test: NCI growth inhibition, SR; details: SR (Leukemia)
SK-MEL-5 = test: NCI growth inhibition, SK-MEL-5; details: SK-MEL-5 (Melanoma)
OVCAR-3 = test: NCI growth inhibition, OVCAR-3; details: OVCAR-3 (Ovarian)
NCI/ADR-RES = test: NCI growth inhibition, NCI/ADR-RES; details: NCI/ADR-RES (Breast)
EKVX = test: NCI growth inhibition, EKVX; details: EKVX (Non-Small Cell Lung)
RPMI-8226 = test: NCI growth inhibition, RPMI-8226; details: RPMI-8226 (Leukemia)
786-0 = test: NCI growth inhibition, 786-0; details: 786-0 (Renal)
SK-MEL-28 = test: NCI growth inhibition, SK-MEL-28; details: SK-MEL-28 (Melanoma)
SK-OV-3 = test: NCI growth inhibition, SK-OV-3; details: SK-OV-3 (Ovarian)
MDA-N = test: NCI growth inhibition, MDA-N; details: MDA-N (Breast)
NCI-H23 = test: NCI growth inhibition, NCI-H23; details: NCI-H23 (Non-Small Cell Lung)
SN12C = test: NCI growth inhibition, SN12C; details: SN12C (Renal)
NCI-H460 = test: NCI growth inhibition, NCI-H460; details: NCI-H460 (Non-Small Cell Lung)
HT29 = test: NCI growth inhibition, HT29; details: HT29 (Colon)
SNB-19 = test: NCI growth inhibition, SNB-19; details: SNB-19 (CNS)
NCI-H522 = test: NCI growth inhibition, NCI-H522; details: NCI-H522 (Non-Small Cell Lung)
LOX IMVI = test: NCI growth inhibition, LOX IMVI; details: LOX IMVI (Melanoma)
SW-620 = test: NCI growth inhibition, SW-620; details: SW-620 (Colon)
A498 = test: NCI growth inhibition, A498; details: A498 (Renal)

CC(=O)N[C@H]1CC[C@H](Nc2nc(NCc3ccc(-c4ccccc4)nc3)c3ncn(C(C)C)c3n2)CC1 [Compound 87]
GI50 (MDA-MB-231/ATCC): < 10 nM | GI50 (UACC-62): 45 nM | GI50 (M14): < 10 nM | GI50 (BT-549): 20 nM | GI50 (IGROV1): 52 nM | GI50 (NCI-H322M): 21 nM | GI50 (SF-268): < 10 nM | GI50 (T-47D): 48 nM | GI50 (OVCAR-4): 48 nM | GI50 (HL-60 (TB)): < 10 nM | GI50 (MCF7): 40 nM | GI50 (TK-10): 29 nM | GI50 (MALME-3M): 24 nM | GI50 (HCC-2998): < 10 nM | GI50 (UO-31): 16 nM | GI50 (SNB-75): 12 nM | GI50 (DU-145): 220 nM | GI50 (U251): 28 nM | GI50 (CCRF-CEM): < 10 nM | GI50 (K-562): 24 nM | GI50 (OVCAR-5): 51 nM | GI50 (OVCAR-8): 33 nM | GI50 (UACC-257): 17 nM | GI50 (RXF 393): 11 nM | GI50 (KM12): < 10 nM | GI50 (SF-539): 81 nM | GI50 (SR): 32 nM | GI50 (SK-MEL-5): 28 nM | GI50 (OVCAR-3): 50 nM | GI50 (NCI/ADR-RES): 280 nM | GI50 (EKVX): 81 nM | GI50 (RPMI-8226): < 10 nM | GI50 (786-0): 47 nM | GI50 (SK-MEL-28): < 10 nM | GI50 (SK-OV-3): 350 nM | GI50 (MDA-N): 14 nM | GI50 (NCI-H23): 22 nM | GI50 (SN12C): < 10 nM | GI50 (NCI-H460): 220 nM | GI50 (HT29): < 10 nM | GI50 (SNB-19): 38 nM | GI50 (NCI-H522): < 10 nM | GI50 (LOX IMVI): 27 nM | GI50 (SW-620): < 10 nM | GI50 (A498): 100 nM
